BindingDB's records for doi:10.1016/j.bmc.2012.10.010 (National Research Center, 2012)
pKi: −log10 of the molar value.

Biological target: Urokinase-type plasminogen activator (Homo sapiens) (UniProt P00749)
Assay: Binding affinity to uPA

In order of falling pKi:
1. N#Cc1cc(-c2ccccc2)n(Cc2nc3ccccc3[nH]2)c1N  12.00
2. N#Cc1cc(-c2ccccc2)n(-c2ccc(Cl)cc2)c1N  11.52
3. N#Cc1cc(-c2ccccc2)n(-c2ccc(Br)cc2)c1N  11.52
